Data set [1] concerns healthy volunteers. As to the kind of experiment: Blood potassium, glucose and other peripheral effects after Compound 03-5 with or without nadolol. The class given is in vivo, human. As for the experimental part: (§1) Healthy volunteers were enrolled into 2 cohorts in a study to undertake within-subject dose titration of Compound 03-5 and/or nadolol in order to explore doses/dose combinations that mitigate peripheral effects of Compound 03-5, e.g. on heart rate, while preserving possible central effects of Compound 03-5 on cerebral perfusion and pupillary light reflex.
(§2) Eight healthy subjects aged 18-50 years were enrolled into Cohort D1 and received escalating doses of Compound 03-5 (3-12 mg) administered once daily 2 hours follow pre-administration of nadolol (1-40 mg). On all dosing days, study drug(s) were administered orally after an overnight fast of at least 8 hours.
(§3) In Cohort D2, 8 healthy volunteers aged 55-75 years were admitted on Day −1 for a 5-day confinement period at the research facility. During this confinement, subjects received escalating doses of open label Compound 03-5 (1-10 mg) once-daily from Day 1 through Day 3 2 hours after pre-administration of open-label nadolol (3 mg) one each for the 3 dosing days according to the schematic in FIG. 17. Subjects remained in-residency until all study procedures are completed on Day 4.

The test system of data set [2] is healthy volunteers. As to the kind of experiment: Heart rate (triplicate ECG) after Compound 03-5 with or without nadolol. The class given is in vivo, human. As for the experimental part:
as §1, §2, §3

Data set [3] concerns healthy volunteers and patients. Nature of the data set: Cerebral blood flow after single dose of Compound 03-5. The note with it: single dose of Compound 03-5 in the absence or presence of 3 mg nadolol. The class given is in vivo, human. The source says:
Data are plotted as mean (±SEM) percent change in cerebral blood flow from baseline in brain regions of interest for movement (the precentral gyrus) and mood, anhedonia and cognition (hippocampus, thalamus, amygdala).

Data set [4] has as its system healthy volunteers. As to the kind of experiment: CANTAB cognition battery, Cohort D2. The note with it: Compound 03-5 1, 3 and 10 mg on Days 1, 2, 3 in the presence of 3 mg nadolol. The data set is classed as in vivo, human. As to the method: as §3
Compound 03-5 dose administration. Compound 03-5 was administered as escalating doses on Day 1 (1 mg), Day 2 (3 mg) and Day 3 (10 mg). CANTAB was conducted twice in all subjects on the day prior to start of dosing (Day −1) to familiarize subjects with the platform, and prior to dosing and approximately 3 hours after Compound 03-5 administration on Days 1, 2, and 3.

For data set [5], the system named is patients with neurodegenerative disorders. The data set is classed as in vivo, human. The note with it: 80 μg clenbuterol and 1 mg nadolol once daily for 14 days vs placebo.
The subject of data set [6] is patients. Nature of the data set: Peripheral effects of clenbuterol with or without nadolol (heart rate, potassium, glucose).
Data set [7] relates to healthy subjects. As to the kind of experiment: Adaptive tracking test. The data set is classed as in vivo, human. The note with it: single dose 160 μg clenbuterol. The source says:
Adaptive tracking measures visuomotor coordination and vigilance. In this test, the subject uses a joystick to move a small dot so that it stays within a continuously moving circle on a computer screen (Boland 1984). During the test, the speed of the circle is adjusted in response to the subject's ability to keep the dot in the circle, ensuring that the test is adapted to the individual subject. […] The improvement shown by subjects is in the same range as that seen with subjects treated with the acetylcholinesterase inhibitor donepezil, which is in clinical use for the treatment of mild to moderate AD (Groeneveld 2016).

Data set [8] relates to patients with neurodegenerative disorders. As to the kind of experiment: Facial Expression Recognition Task (FERT), crossover study. The data set is classed as in vivo, human. The note with it: clenbuterol co-administered with low-dose nadolol vs placebo. From the text: The Facial Expression Recognition Task (FERT) assesses the recognition of facial emotions. […] Different intensity levels of each emotion are presented, which increases the ambiguity of the facial expression and the sensitivity of the task.

Data set [9] deals with patients. As to the kind of experiment: Cerebral blood flow by brain imaging after single dose (Example 1). The data set is classed as in vivo, human.
The subject of data set [10] is healthy subjects. As to the kind of experiment: Cerebral perfusion by ASL MRI after single dose of clenbuterol (Example 3). The note with it: for cerebral blood flow measured by MRI-ASL: healthy volunteers, single dose (FIG. 2).
Data set [11] deals with healthy subjects. Nature of the data set: Visual verbal learning test (VVLT). The class given is in vivo, human. The note with it: single dose; crossover study. As to the method: Subjects are presented 30 words on a screen, one at a time, for 1 second with a 1-second interval between words over a total of 1 minute. This is repeated in 3 trials. After each trial, subjects are asked to recall as many words as they can. After the third trial, there is a delay of 2.5 hours and subjects are then tested once for delayed recall. […] Since this was a crossover study, everyone who completed Part A was dosed with the 3 agents plus placebo.

Setting [12] is: monotherapy with Compound 03-5 (0.3-6 mg).
The mark [13] stands for this setting: 80 µg clenbuterol on its own, single dose.

Entries after “also recorded” stand apart in the source; their conditions may differ.

These results are taken from patent US20250134835A1, “COMPOSITIONS AND METHODS FOR TREATING PATIENTS WITH AMYOTROPHIC LATERAL SCLEROSIS (ALS)” (CuraSen Therapeutics, Inc., priority 2022, published 2025).

For `CC(C)(C)NCC(O)COc1cccc2c1CC(O)C(O)C2` (centres unmarked) [nadolol], the “effect of nadolol on Compound 03-5 induced decrease in blood potassium” value in the data set with healthy volunteers [1] (3 mg nadolol, cohort D2) is reported as “inhibited”. For the same compound, the “effect of nadolol on effects of Compound 03-5 on blood glucose and potassium, tachycardia, tremor and palpitations” value in the data set on healthy volunteers [1] (pre-administration of 1 mg nadolol) is given as “Concomitant attenuation”. In addition, the “effect of nadolol on peripheral effects of Compound 03-5 (heart rate, glucose, potassium)” value in the data set with healthy volunteers [2] (3 mg nadolol pre-administered, Cohort D2, Compound 03-5 1-10 mg) is reported as “inhibited; also recorded: similarly blocked”. Moreover, the “effect of nadolol on peripheral effects of Compound 03-5 (heart rate, glucose, potassium, tachycardia, tremor, palpitations)” value in the data set with healthy volunteers [2] (Cohort D1, nadolol 1 mg up to 40 mg, Compound 03-5 3-12 mg) is given as “blocked”. In addition, the “effect of nadolol on heart rate increase and other peripheral effects of Compound 03-5” value in the data set with healthy volunteers [2] (pre-administration of 1 mg nadolol, Compound 03-5 up to 6 mg orally) was “substantially attenuated”.

For the compound `CC(C)(C)NC[C@H](O)c1cccc(C#N)n1` [Compound 03-5, (S)-6-(2-(tert-butylamino)-1-hydroxyethyl)picolinonitrile], the blood potassium concentrations entry in the data set on healthy volunteers [1] (setting [12]) is “dose-dependent decreases in blood potassium concentrations”. For the same compound, the “cerebral blood flow from baseline (precentral gyrus, hippocampus, thalamus, amygdala)” value in [3] is given as “robust, global increases in cerebral blood flow”. In addition, the “cognition (CANTAB), change from within-day pre-dose assessment” value in the data set with healthy volunteers [4] is “improvements in performance in the CANTAB cognition battery”. The “mean maximum increase in heart rate” value in the data set on healthy volunteers [2] (Compound 03-5 with pre-administration of 1 mg nadolol) is recorded as 7 beats per minute. Also, the “heart rate change from baseline” value in the data set with healthy volunteers [2] (setting [12]) is “dose-dependent increases in heart rate”.

On to `CC(C)(C)NCC(O)c1cc(Cl)c(N)c(Cl)c1` (centres unmarked) [clenbuterol], for which the “number of words correctly recalled, immediate verbal recall” value in data set [5] is “statistically significant increase in the number of words correctly recalled”. The “glucose in the blood, change from baseline” value in the data set on patients [6] (setting [13]) is “increases in glucose in the blood”. Also, the “potassium in the blood, change from baseline” value in the data set on patients [6] (setting [13]) is given as “decreases in potassium in the blood”. In the data set on patients [6] (80 g clenbuterol on its own, single dose), the “heart rate change from baseline” value is listed as “increases in heart rate”. Besides, the “increases in heart rate” value in the data set on patients [6] (over the 4 hours after dosing clenbuterol+nadolol (1 mg)) is 4.0-6.8 bpm. Further, the “performance in adaptive tracking (percent time dot kept within moving circle)” value with healthy subjects [7] is “improved performance in the adaptive tracking task; also recorded: improves cognition; also recorded: performance in adaptive tracking improves”. In addition, the “accuracy of correctly identifying happy facial expressions (FERT)” value in [8] is “statistically significant increase in the accuracy”. The “cerebral blood flow (CBF) relative to the baseline” value was “global increases in cerebral blood flow; also recorded: robust global increase in cerebral blood flow; also recorded: robust, global increase in cerebral blood flow” in the data set with patients [9] (single dose clenbuterol 160 μg); “global increases in cerebral blood flow; also recorded: robust global increase in cerebral blood flow” in the data set with patients [9] (single dose clenbuterol 160 μg and nadolol 5 mg); “robust global increase in cerebral blood flow” in the data set with patients [9] (single dose clenbuterol ranging from 20 to 160 μg, tracked 3 days). Further, the “cerebral blood flow from the baseline” value with patients [9] (single dose clenbuterol 30 to 160 μg and/or nadolol 5 mg, tracked 3 days) is on record as “robust global increase in cerebral blood flow”. Besides, the cerebral perfusion entry with healthy subjects [10] (160 μg clenbuterol, hippocampus, thalamus, amygdala, cortex, precentral gyrus) was “robust global increase in cerebral perfusion”. Further, the “cerebral perfusion as measured by CBF” value with healthy subjects [10] (clenbuterol 40 μg) was “minimal increase”; in the data set with healthy subjects [10] (clenbuterol doses below 30 μg) it was “do not produce significant cerebral perfusion increases”. Also, the “cerebral blood flow measured by MRI-ASL” value with healthy subjects [10] is listed as “increases in cerebral blood flow”. In the data set on healthy subjects [11], the “effect on VVLT (number of words recalled correctly)” value (shortened to “effect on VVLT”) was “improvements in cognition; also recorded: positive effects”.

As for `CC(C)(C)NCC(O)c1ccc(O)c(CO)c1` (centres unmarked) [salbutamol], the “effect on VVLT” value in the data set with healthy subjects [11] is on record as “improvements in cognition; also recorded: positive effects”.

Regarding `CC(C)NCC(O)COc1cccc2[nH]ccc12` (centres unmarked) [pindolol], the “cerebral blood flow measured by MRI-ASL” value in the data set with healthy subjects [10] is recorded as “lack of increase in cerebral blood flow”. Moreover, the “effect on VVLT” value in the data set with healthy subjects [11] was “detrimental effect”.
